Consider twelve compounds from ChEMBL document CHEMBL1137073, “Development of irreversible diphenyl phosphonate inhibitors for urokinase plasminogen activator” (J Med Chem, 2004).

Experiment [1] concerns the target T1, Coagulation factor X (Homo sapiens, UniProt P00742). As to the kind of experiment: Inhibitory activity against Coagulation factor Xa.
Experiment [2] addresses T2, Plasminogen (Homo sapiens, UniProt P00747). As to the kind of experiment: Inhibitory activity against plasmin.
The target of experiment [3] is T3, Prothrombin (Homo sapiens, UniProt P00734). Description: Inhibitory activity against thrombin.
Experiment [4] addresses T4, Urokinase-type plasminogen activator (Homo sapiens, UniProt P00749). As to the kind of experiment: (§1) Inhibitory activity against Urokinase-type plasminogen activator.
Experiment [5] addresses T5, Tissue-type plasminogen activator (Homo sapiens, UniProt P00750). Description: Inhibitory activity against Tissue type plasminogen activator.
Target sequence in this assay (P00750 whole entry): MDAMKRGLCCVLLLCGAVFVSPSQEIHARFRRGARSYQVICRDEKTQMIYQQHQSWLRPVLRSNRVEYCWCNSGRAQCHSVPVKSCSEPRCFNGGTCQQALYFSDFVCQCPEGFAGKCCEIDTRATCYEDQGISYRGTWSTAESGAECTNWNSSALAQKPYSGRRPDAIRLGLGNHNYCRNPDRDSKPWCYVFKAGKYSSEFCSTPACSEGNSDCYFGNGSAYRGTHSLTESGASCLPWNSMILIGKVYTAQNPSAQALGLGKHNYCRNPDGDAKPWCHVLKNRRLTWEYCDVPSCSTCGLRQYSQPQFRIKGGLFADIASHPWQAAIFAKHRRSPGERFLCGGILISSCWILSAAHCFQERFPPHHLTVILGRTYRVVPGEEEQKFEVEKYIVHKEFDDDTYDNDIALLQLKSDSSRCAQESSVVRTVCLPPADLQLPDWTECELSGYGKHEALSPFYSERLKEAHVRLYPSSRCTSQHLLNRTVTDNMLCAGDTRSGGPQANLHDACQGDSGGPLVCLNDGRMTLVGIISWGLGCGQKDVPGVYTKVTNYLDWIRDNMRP
For experiment [6], the target named is T4, Urokinase-type plasminogen activator. The experiment is described as §1. The source holds these as a separate data set.
In experiment [7] the target is T1, Coagulation factor X. The settings on record: at 250 µM.
Description: Inhibitory activity against Coagulation factor Xa at a concentration of 250 uM
The target in experiment [8] is T5, Tissue-type plasminogen activator. The settings on record: at 250 µM.
Target sequence in this assay (P00750 36-562 limits assumed): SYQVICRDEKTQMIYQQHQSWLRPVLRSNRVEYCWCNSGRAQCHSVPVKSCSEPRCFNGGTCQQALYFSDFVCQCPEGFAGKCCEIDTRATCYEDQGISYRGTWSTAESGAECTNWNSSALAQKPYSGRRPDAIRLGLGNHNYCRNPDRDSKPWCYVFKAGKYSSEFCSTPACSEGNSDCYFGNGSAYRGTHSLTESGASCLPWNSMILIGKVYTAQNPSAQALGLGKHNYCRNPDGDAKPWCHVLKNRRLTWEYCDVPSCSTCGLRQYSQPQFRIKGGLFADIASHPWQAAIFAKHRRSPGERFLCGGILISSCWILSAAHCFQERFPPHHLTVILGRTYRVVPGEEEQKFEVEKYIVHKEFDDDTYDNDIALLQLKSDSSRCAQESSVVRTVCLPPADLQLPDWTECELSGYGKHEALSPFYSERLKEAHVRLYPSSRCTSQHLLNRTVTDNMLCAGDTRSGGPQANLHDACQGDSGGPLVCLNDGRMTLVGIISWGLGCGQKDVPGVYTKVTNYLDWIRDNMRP
Description: (§2) Inhibitory activity against Tissue type plasminogen activator at a concentration of 250 uM
The target of experiment [9] is T3, Prothrombin. Conditions: at 250 µM.
Description: Inhibitory activity against thrombin at a concentration of 250 uM
Experiment [10] concerns the target T2, Plasminogen. The settings on record: at 250 µM.
Description: Inhibitory activity against plasmin at a concentration of 250 uM
In experiment [11] the target is T3, Prothrombin. As to the kind of experiment: Inhibitory activity against thrombin at a concentration of 2.5 uM.
Experiment [12] addresses T5, Tissue-type plasminogen activator. Conditions: at 250 µM. This is another data set of the same source.
Target sequence in this assay (P00750 36-562 limits assumed): as above
Description: as §2
Experiment [13] shares this target. As to the kind of experiment: Inhibitory activity against Tissue type plasminogen activator at a concentration of 2.5 uM.
Target sequence in this assay (P00750 36-562 limits assumed): as above
The target is the same in experiment [14]. As to the kind of experiment: Inhibitory activity against Tissue type plasminogen activator at a concentration of.
Target sequence in this assay (P00750 36-562 limits assumed): as above

Molecules are shown by their SMILES.

T1 sequence (P00742 41-179 limits assumed): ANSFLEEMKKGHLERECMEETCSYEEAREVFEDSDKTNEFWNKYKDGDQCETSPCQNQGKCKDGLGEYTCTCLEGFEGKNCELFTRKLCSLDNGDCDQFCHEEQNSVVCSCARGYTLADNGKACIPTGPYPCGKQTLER
T1 sequence (P00742 235-488 limits assumed): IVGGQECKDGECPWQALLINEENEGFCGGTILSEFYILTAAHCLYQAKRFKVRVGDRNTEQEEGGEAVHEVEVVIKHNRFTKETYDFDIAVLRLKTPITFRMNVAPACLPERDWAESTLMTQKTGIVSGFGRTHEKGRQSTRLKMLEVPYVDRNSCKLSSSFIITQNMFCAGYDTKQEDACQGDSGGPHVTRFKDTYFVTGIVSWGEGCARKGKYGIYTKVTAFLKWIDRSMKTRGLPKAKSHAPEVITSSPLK
T2 sequence (P00747 97-580 limits assumed): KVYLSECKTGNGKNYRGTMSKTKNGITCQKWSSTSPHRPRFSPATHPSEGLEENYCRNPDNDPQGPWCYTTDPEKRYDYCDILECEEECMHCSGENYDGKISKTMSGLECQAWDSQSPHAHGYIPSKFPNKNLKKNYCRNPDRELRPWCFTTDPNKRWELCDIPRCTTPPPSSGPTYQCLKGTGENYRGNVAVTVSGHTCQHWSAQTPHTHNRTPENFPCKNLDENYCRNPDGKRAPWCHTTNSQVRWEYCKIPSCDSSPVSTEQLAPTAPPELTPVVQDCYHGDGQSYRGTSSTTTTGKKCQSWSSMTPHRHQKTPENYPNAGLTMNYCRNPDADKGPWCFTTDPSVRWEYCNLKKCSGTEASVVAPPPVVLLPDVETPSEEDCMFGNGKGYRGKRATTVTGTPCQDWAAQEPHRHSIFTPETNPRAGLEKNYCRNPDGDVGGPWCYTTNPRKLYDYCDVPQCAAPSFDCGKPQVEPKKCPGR
T2 sequence (P00747 581-810 limits assumed): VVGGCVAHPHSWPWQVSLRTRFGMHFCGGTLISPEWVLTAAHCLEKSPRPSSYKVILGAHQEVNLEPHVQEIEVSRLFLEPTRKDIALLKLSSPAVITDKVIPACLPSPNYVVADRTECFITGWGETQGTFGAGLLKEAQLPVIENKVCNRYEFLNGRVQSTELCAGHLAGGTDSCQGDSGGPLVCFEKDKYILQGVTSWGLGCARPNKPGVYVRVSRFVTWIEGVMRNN

Broadly, the IC50 is the midpoint of a concentration-inhibition curve. As for `C[C@H](NC(=O)[C@@H](CO)NC(=O)OCc1ccccc1)C(=O)NC(Cc1ccc(N=C(N)N)cc1)P(=O)(Oc1ccccc1)Oc1ccccc1` (some centres undefined), the half-maximal inhibitory concentration (IC50) against Coagulation factor X [1] worked out at 79 µM; on Plasminogen [2] it was 22 µM; against Prothrombin [3] it was 30 µM; in experiment [4], 0.057 µM; in experiment [5], 14 µM.

On to `C[C@H](NC(=O)[C@@H](CO)NC(=O)OCc1ccccc1)C(=O)NC(Cc1ccc(NC(=N)N)cc1)P(=O)(Oc1ccccc1)Oc1ccccc1` (some centres undefined), for which the K app in experiment [6] amounted to 6.7 M⁻¹ s⁻¹.

A word on the inhibition: it is the relative decrease from the control value, in per cent. Read a high inhibition as a strong effect. In experiment [6], `C[C@H](NC(=O)[C@@H](CO)NC(=O)OCc1ccccc1)C(=O)NC(c1ccc(CN=C(N)N)cc1)P(=O)(Oc1ccccc1)Oc1ccccc1` (some centres undefined) returned a K app of 3.3 M⁻¹ s⁻¹. Also, half-maximal inhibition in experiment [4] (IC50) was put at 8.4 µM. Besides, the inhibition at Coagulation factor X [7] was 44%; in experiment [8], 43%; against Prothrombin [9] it was 20%; against Plasminogen [10], 45%.

`C[C@H](NC(=O)[C@@H](CO)NC(=O)OCc1ccccc1)C(=O)NC(CCN=C(N)N)P(=O)(Oc1ccccc1)Oc1ccccc1` (some centres undefined) yielded a K app in [6] of 1.4 M⁻¹ s⁻¹. Besides, the inhibition on Prothrombin [11] turned out to be 10%; at Coagulation factor X [7] it was 6%; in experiment [12], 46%; at Prothrombin [9] it was 96%; against Plasminogen [10], 15%.

In experiment [4], `C[C@H](NC(=O)[C@@H](CO)NC(=O)OCc1ccccc1)C(=O)NC(c1ccc(N=C(N)N)cc1)P(=O)(Oc1ccccc1)Oc1ccccc1` (some centres undefined) gave an IC50 of 1.6 µM.

Consider `C[C@H](NC(=O)[C@@H](CO)NC(=O)OCc1ccccc1)C(=O)NC(CCCCN=C(N)N)P(=O)(Oc1ccccc1)Oc1ccccc1` (some centres undefined), for which the inhibition was 19% in experiment [13] and 12% on Prothrombin [11]. In experiment [6], this compound displayed a K app of 3.8 M⁻¹ s⁻¹. For the same compound, the 50% inhibitory concentration (IC50) in experiment [4] is 0.25 µM.

Take `C[C@H](NC(=O)[C@@H](CO)NC(=O)OCc1ccccc1)C(=O)NC(CCCNC(=N)N)P(=O)(Oc1ccccc1)Oc1ccccc1` (some centres undefined): the IC50 against Coagulation factor X [1] came to 65 µM; against Plasminogen [2] it was 10.8 µM; against Prothrombin [3], 0.5 µM; in [4] it was 0.061 µM.

`C[C@H](NC(=O)[C@@H](CO)NC(=O)OCc1ccccc1)C(=O)NC(CCNC(=N)N)P(=O)(Oc1ccccc1)Oc1ccccc1` (some centres undefined) came in with an IC50 in experiment [4] of 4.1 µM.

Turning to `C[C@H](NC(=O)[C@@H](CO)NC(=O)OCc1ccccc1)C(=O)NC(c1ccc(NC(=N)N)cc1)P(=O)(Oc1ccccc1)Oc1ccccc1` (some centres undefined), the inhibition was found to be 53% in experiment [14], 44% on Prothrombin [11], 56% at Coagulation factor X [7] and 46% on Plasminogen [10]. Further, in [6], the K app was found to be 2 M⁻¹ s⁻¹.

Turning to `N=C(N)NC(=O)c1nc(Cl)c(N)nc1N` [AMILORIDE], the half-inhibitory concentration (IC50) (on Prothrombin [3]; in experiment [5]) was more than 250 µM throughout. The inhibition came out at 17% on Coagulation factor X [7] and 23% on Plasminogen [10].

The compound `C[C@H](NC(=O)[C@@H](CO)NC(=O)OCc1ccccc1)C(=O)NC(CCCN=C(N)N)P(=O)(Oc1ccccc1)Oc1ccccc1` (some centres undefined) had an inhibition in experiment [13] of 50%.

`C[C@H](NC(=O)[C@@H](CO)NC(=O)OCc1ccccc1)C(=O)NC([C@H]1CC[C@H](CN=C(N)N)CC1)P(=O)(Oc1ccccc1)Oc1ccccc1` (some centres undefined): the IC50 against Plasminogen [2] came out at 32.2 µM; in [4], 1.1 µM. This compound also came in with a K app in experiment [6] of 1.4 M⁻¹ s⁻¹. The inhibition was determined as 77% on Coagulation factor X [7], 41% in experiment [8] and 40% at Prothrombin [9].
